Paper PMC4010497, “Synthesis and Evaluation of Fluorine-Substituted Phenyl Acetate Derivatives as Ultra-Short Recovery Sedative/Hypnotic Agents” (PLoS ONE, 2014)

Assays:
mice [1] = assay: in vivo; details: LD50/HD50
Description: (§1) The LD50 was determined in mice, rats, and rabbits and the TI was calculated as LD50/HD50.

in vivo = details: mouse, in vivo, mice, 95% confidence limits
Description: as §1

[2] = Octanol:water partition coefficient; assay type: physicochemical; details: water buffered with 10 mm Tris (pH 7.4)
Description: One mg of each hypnotic was added to 10 ml of water buffered with 10 mm Tris (pH 7.4) and 1 ml of octanol. The mixture was stirred overnight and then centrifuged to fully separate the organic and aqueous phases. The relative hypnotic concentration in each phase (i.e., the partition coefficient) was determined by high-performance liquid chromatography as described for blood.

GABAA receptor = assay: GABAA radioligand binding assay ([3H]EBOB); details: 50 µM compound, 0.5 nM [3H]EBOB, rat frontoparietal cortex
Description: All the new compounds were dissolved in 5% DMSO.
Specific binding was determined in the presence of compounds.
Membrane suspensions were thawed and centrifuged in incubation buffer at 10,000×g for 10 min and washed by a similar centrifugation. For displacement studies, membrane suspensions (5 mg original wet wt./ml) were incubated with 0.5 nM [^3H]EBOB ([…], Perkin Elmer Life Sciences, Boston, MA, USA) in the absence or presence of 50 µM of new compounds or reference drug for 2 h at 25°C. Nonspecific binding was determined in the presence of 10 µM Bicuculline. Bicuculline and picrotoxin were frequently used to determine the nonspecific binding when [3H]EBOB as radioligand [17]. Triplicate 1 ml samples were filtered on Whatman GF/B filters under vacuum with a Brandel Harvester and washed with 3×3 ml ice-cold buffer.

mice [3] = assay: animal or person; assay type: in vivo; details: mice; for ED50: Mus musculus, IV over 10 s, 95% confidence limits, read-out: HD50 (the source's name); for Duration of LORR: IV 2× HD50, mean ± SD (n = 10); for Onset time: IV, mean ± SD (n = 10)
Description: All tests were performed during the light period. Groups of mice, rats and rabbits were injected intravenously (lateral tail vein) over 10 s with each dose of test compound, placed in separate boxes to reduce external stimuli and assessed for the loss of righting reflex. Dosing was performed using mg/kg scheme. A set of dose levels was chosen, and depending on whether the loss of righting reflex was observed, extra doses were introduced to provide data for the loss of righting reflex over a narrow dose range to allow potency calculations. From the percentage of mice, rats and rabbits in each group showing loss of righting reflex for ≥30 s, a probit analysis (SAS Institute) was performed to obtain an HD50 for each compound with 95% confidence limits.
Immediately following the injection, the mice, rats and rabbits were tested for loss of righting reflex. […] Once a loss was observed, the interval between the loss of righting reflex and the return to righting reflex was recorded. The anesthetized animals recovered righting reflexes spontaneously. To compare the duration of LORR of each compound at equipotent doses, groups of mice, rats and rabbits were injected with each compound at 2× HD50 over 10 s.
Time to walk was the time required after righting before mice and rabbits walked from the center to the periphery of a 30-cm diameter dise.
The rotarod test was conducted to evaluate the recovery to the motor coordination. Before the LORR test, mice were trained for 2 consecutive days. Trained mice could maintain their balance on rod for more than 2 mins. After the mice could walk from the center to the periphery of a 30-cm diameter dise, they were put on the rotarod. Mice were classified as behavioral recovery when, on being placed on the rod, they could maintain their balance for 20 s. The time to behavioral recovery was the time required after mice walked from the centre to the periphery of a 30-cm diameter disc before they could maintain their balance on rod for 20 s.

SMILES	TI (mice [1])	LD50 (in vivo) [mg/kg]	Octanol:Water Partition (Coefficient ± SD) [2]	GABAA binding (50 µmol) (Mean ± SD), percentage of inhibition (GABAA receptor) [%]	ED50 (mice [3]) [mg/kg]	Time to walk (mice [3]; 2× HD50) [s]	time to behavioral recovery (mice [3]; 2× HD50, rotarod) [s]	Duration of LORR (mice [3]) [s]	Onset time (mice [3]) [s]	anesthetic potency (in words) (mice [3])	LD50 (in vivo; intravenous) [mg/kg]
CCN(CC)C(=O)COc1ccc(CC(=O)OCC(F)(F)F)cc1OC [Compound 5g, 2,2,2-trifluoroethyl 2-(4-(2-(diethylamino)-2-oxoethoxy)-3-methoxyphenyl)acetate]	6.1	363	597±68	87.2±5.7	59.6	22.5 ± 6.9	46.5 ± 8.5	44.8 ± 2.1	6.2 ± 0.4		
CCCOC(=O)Cc1ccc(OCC(=O)N(CC)CC)c(OCC(F)(F)F)c1 [Compound 5e, propyl 2-(4-(2-(diethylamino)-2-oxoethoxy)-3-(2,2,2-trifluoroethoxy)phenyl)acetate]	5.7	250	872±65	72.2±6.5	43.8			224.6 ± 19.5	23.4 ± 4.6		
CCOC(=O)Cc1ccc(OCC(=O)N(CC)CC)c(OC(F)(F)F)c1 [Compound 5a, Ethyl 2-(4-(2-(diethylamino)-2-oxoethoxy)-3-(trifluoromethoxy)phenyl)acetate]	6.1	442	2157±185	69.1±4.2	72.5			155.2 ± 10.3	35.1 ± 6.8		
CCN(CC)C(=O)COc1ccc(CC(=O)OCC(F)(F)F)cc1OCC(F)(F)F [Compound 5f, 2,2,2-trifluoroethyl 2-(4-(2-(diethylamino)-2-oxoethoxy)-3-(2,2,2-trifluoroethoxy)phenyl)acetate]			1452±156	45.4±4.3						poor anesthetic potency	
CCOC(=O)Cc1ccc(OCC(=O)N(CC)CC)c(OCC(F)(F)F)c1 [Compound 5d, ethyl 2-(4-(2-(diethylamino)-2-oxoethoxy)-3-(2,2,2-trifluoroethoxy)phenyl)acetate]	5.5	260	778±77	67.7±3.2	47.4			181.9 ± 14.3	25.2 ± 3.8		
CCOc1cc(CC(=O)OCCC(F)(F)F)ccc1OCC(=O)N(CC)CC [Compound 5k, 3,3,3-trifluoropropyl 2-(4-(2-(diethylamino)-2-oxoethoxy)-3-ethoxyphenyl)acetate]			667±102	74.0±6.3	29.2			65.6 ± 6.8	7.6 ± 0.9		
CCCOC(=O)Cc1ccc(OCC(=O)N(CC)CC)c(OC(F)(F)F)c1 [Compound 5b, propyl 2-(4-(2-(diethylamino)-2-oxoethoxy)-3-(trifluoromethoxy)phenyl)acetate]	5.9		4745±280	73.9±5.3	58.7			162.6 ± 15.7	32.4 ± 5.6		346
CCN(CC)C(=O)COc1ccc(CC(=O)OC(C)C(F)(F)F)cc1OC (stereo not shown) [Compound 5i, 1,1,1-trifluoropropan-2-yl 2-(4-(2-(diethylamino)-2-oxoethoxy)-3-methoxyphenyl)acetate]	5.5	112	1857±124	81.6±10.5	21.1			80.1 ± 9.3	7.2 ± 0.5		
CCOc1cc(CC(=O)OC(C)C(F)(F)F)ccc1OCC(=O)N(CC)CC (stereo not shown) [Compound 5l, 1,1,1-trifluoropropan-2-yl 2-(4-(2-(diethylamino)-2-oxoethoxy)-3-ethoxyphenyl)acetate]	5.1	103	2857±400	79.5±10.0	20.7			121.2 ± 11.5	7.3 ± 1.1		
CCN(CC)C(=O)COc1ccc(CC(=O)OCCC(F)(F)F)cc1OC [Compound 5h, 3,3,3-trifluoropropyl 2-(4-(2-(diethylamino)-2-oxoethoxy)-3-methoxyphenyl)acetate]			792±36	80.3±7.6	25.6			69.3 ± 7.8	7.5 ± 1.2		
CCN(CC)C(=O)COc1ccc(CC(=O)OCC(F)(F)F)cc1OC(F)(F)F [Compound 5c, 2,2,2-trifluoroethyl 2-(4-(2-(diethylamino)-2-oxoethoxy)-3-(trifluoromethoxy)phenyl)acetate]			3427±130	30.4±3.5						poor anesthetic potency	
